From BindingDB's records for doi:10.1007/s002100000299 (University of Oslo, 2001)
Where “and” joins values, the source holds several entries; their conditions need not be identical. Equal entries are not always repeated.

The compounds below were run against 5-hydroxytryptamine receptor 4 (Homo sapiens, UniProt Q13639).
5-hydroxytryptamine receptor 4, sequence (Q13639 whole entry): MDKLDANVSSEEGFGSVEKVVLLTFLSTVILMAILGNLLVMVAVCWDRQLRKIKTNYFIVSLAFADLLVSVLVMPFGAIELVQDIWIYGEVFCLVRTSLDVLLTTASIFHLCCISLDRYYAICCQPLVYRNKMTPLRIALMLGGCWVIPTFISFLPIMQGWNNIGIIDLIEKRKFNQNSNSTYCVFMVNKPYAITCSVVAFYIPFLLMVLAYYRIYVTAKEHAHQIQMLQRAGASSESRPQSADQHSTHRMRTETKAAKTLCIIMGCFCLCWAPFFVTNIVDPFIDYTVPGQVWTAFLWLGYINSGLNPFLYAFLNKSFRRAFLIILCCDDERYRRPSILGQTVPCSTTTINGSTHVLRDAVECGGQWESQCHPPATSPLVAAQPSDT

SMILES | Ki
CN1C2CCC1CC(OC(=O)c1c[nH]c3ccccc13)C2 (stereo not given) | 158 nM and 79.4 nM
O=C(OCCN1CCCCC1)c1c[nH]c2ccccc12 [CAS_135938-17-9] | 2 nM and 1.3 nM
Cn1cc(C(=O)OCC2CCN(CCNS(C)(=O)=O)CC2)c2ccccc21 [GR 113808] | 0.079 nM and 0.05 nM
NCCc1c[nH]c2ccc(C(N)=O)cc12 [[3H]-5-carboxamidotryptamine] | > 10000 nM
COc1ccc2[nH]cc(CCN)c2c1 [tryptamine, 5-Methoxy] | 316 nM and 251 nM
